Patent US11000033B2, “Ketone or oxime compound, and herbicide” (NISSAN CHEMICAL CORPORATION, priority 2014, dated 2021)

Legend:
Type in all cases: in vivo
Monochoria vaginalis = assay: Test Example 2: herbicidal activity, application during weed generation in submerged conditions (symbol C); details: Table 23; application herbicide amount 320 g/ha; grade 0-5 by criteria of Test Example 1
Procedure, shortened: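 Scoring of herbicidal effect took place 3 weeks after treatment, using the criteria of the earlier test. Treatment was water-surface application of diluted emulsifiable compound at a set dose. Plants were at one- to two-leaf stage in submerged alluvial soil (4 cm depth), greenhouse 25-30° C.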

[1] = tested on: Echinochloa crus-galli var. crus-galli; assay: Test Example 5: herbicidal effect by foliage application, plastic box (symbol H); details: 320 g/ha, 3 weeks after application
Procedure, shortened: (§1)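 Sowing in sterilized diluvial soil, 14 days' greenhouse growth at 25° C. to 30° C., then uniform small-sprayer foliar application of aqueous emulsion dilution; plants scored three weeks afterwards.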

soybean = assay: Test Example 4: effect on crop by soil treatment (symbol d); details: for d: soybean, effect grade on crop: 320 g/ha; for d: soybean, effect on crop grade: application herbicide amount 320 g/ha
Procedure, shortened: (§2)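 Steps: fill box with sterilized diluvial soil; sow seed spot-like; cover with ~1.5 cm soil; grow in greenhouse (25° C. to 30° C.).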

Amaranthus retroflexus = assay: Test Example 4: herbicidal effect by soil treatment (symbol N)
Procedure, shortened: (§3)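 Seeds were sown in sterilized diluvial soil, covered with about 1.5 cm of soil, and the soil surface was sprayed with a water-diluted emulsion of the compound at a predetermined rate. Plants grew in a greenhouse at 25° C. to 30° C.; effects were scored visually 3 weeks after application.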

transplanted rice plant = assay: Test Example 1: effect on crop, application before weed generation in submerged conditions (symbol a); details: application herbicide amount 320 g/ha
Procedure, shortened: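 Alluvial soil pots flooded to 4 cm water, sown with Echinochloa oryzacola, Scirpus juncoides and Monochoria vaginalis, then transplanted with 2.5 leaf stage rice seedlings; pre-emergence application. Greenhouse 25° C. to 30° C.; scored 0–5 by herbicidal ratio 3 weeks after application.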

[2] = tested on: Echinochloa oryzacola Vasing.; assay: Test Example 1: herbicidal activity, application before weed generation in submerged conditions (symbol A); details: application herbicide amount 320 g/ha
Procedure, shortened: (§4)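 0–5 visual score, 3 wk post-application. Submerged pots, alluvial soil, water 4 cm; seeds sown mixed, rice at 2.5 leaves transplanted. Emulsion diluted to predetermined dose, applied to water surface at sowing. 25–30 °C greenhouse.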

Abutilon theophrasti = assay: Test Example 4: herbicidal effect by soil treatment (symbol M)
Procedure, shortened: as §3

[3] = tested on: directly sowed rice plant; assay: Test Example 3: effect on crop by foliage application, Wagner pot (symbol b); details: application herbicide amount 320 g/ha
Procedure, shortened: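 Steps: fill a 1/10000-are Wagner pot with alluvial soil; add water and mix to submerge at 0.1–0.5 cm depth; sow rice plus Echinochloa crus-galli var. crus-galli, Leptochloa chinensis and Cyperus difformis; grow in a 25–30 °C greenhouse.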

Scirpus juncoides = assay: Test Example 1: herbicidal activity, application before weed generation in submerged conditions (symbol B); details: application herbicide amount 320 g/ha
Procedure, shortened: as §4

Avena fatua = assay: Test Example 4: herbicidal effect by soil treatment (symbol I)
Procedure, shortened: as §3

beet = assay: Test Example 4: effect on crop by soil treatment (symbol f); details: for f: beet, effect grade on crop: 320 g/ha; for f: beet, effect on crop grade: application herbicide amount 320 g/ha
Procedure, shortened: as §2

rapeseed = assay: Test Example 4: effect on crop by soil treatment (symbol g); details: for g: rapeseed, effect grade on crop: 320 g/ha; for g: rapeseed, effect on crop grade: application herbicide amount 320 g/ha
Procedure, shortened: as §2

Alopecurus myosuroides = assay: Test Example 4: herbicidal effect by soil treatment (symbol J)
Procedure, shortened: as §3

Veronica persica = assay: Test Example 4: herbicidal effect by soil treatment (symbol R)
Procedure, shortened: as §3

Digitaria ciliaris = assay: Test Example 5: herbicidal effect by foliage application, plastic box (symbol F); details: 320 g/ha, 3 weeks after application
Procedure, shortened: as §1

[4] = application herbicide amount 320 g/ha

SMILES	Herbicidal effect grade, C: Monochoria vaginalis (Monochoria vaginalis)	H: Echinochloa crus-galli var. crus-galli, herbicidal effect grade [1]	d: soybean, effect grade on crop (soybean)	N: Amaranthus retroflexus, herbicidal effect grade (Amaranthus retroflexus; 320 g/ha)	Effect grade on crop, a: transplanted rice plant (transplanted rice plant)	Herbicidal effect grade, A: Echinochloa oryzacola Vasing. [2]	M: Abutilon theophrasti, herbicidal effect grade (Abutilon theophrasti; 320 g/ha)	effect on crop b (directly sowed rice plant), grade 0-5 [3]	Herbicidal effect grade, B: Scirpus juncoides (Scirpus juncoides)	I: Avena fatua, herbicidal effect grade (Avena fatua; 320 g/ha)	f: beet, effect grade on crop (beet)	g: rapeseed, effect grade on crop (rapeseed)	J: Alopecurus myosuroides, herbicidal effect grade (Alopecurus myosuroides; 320 g/ha)	R: Veronica persica, herbicidal effect grade (Veronica persica; 320 g/ha)	F: Digitaria ciliaris, herbicidal effect grade (Digitaria ciliaris)	H: Echinochloa crus-galli var. crus-galli, herbicidal effect (criteria 0-5) [1]	F: Digitaria ciliaris, herbicidal effect (criteria 0-5) (Digitaria ciliaris)	d: soybean, effect on crop grade (soybean)	N: Amaranthus retroflexus, herbicidal effect grade (Amaranthus retroflexus; [4])	M: Abutilon theophrasti, herbicidal effect grade (Abutilon theophrasti; [4])	further results
CON=C(C)CC1CC(OC(=O)N(C)c2ccccc2)=C(c2c(C)cc(C)cc2C)C1=O (stereo not drawn) [1-159]	3 (Herbicidal ratio of 40% or higher and lower than 70%)	4 (Herbicidal ratio of 70% or higher and lower than 90%)	0 (Herbicidal ratio of 5% or lower (almost no effect))	0 (Herbicidal ratio of 5% or lower (almost no effect))	1 (Herbicidal ratio of 5% or higher and lower than 20%)	5 (Herbicidal ratio of 90% or more (almost completely withered))	0 (Herbicidal ratio of 5% or lower (almost no effect))	5 (Herbicidal ratio of 90% or more (almost completely withered))	0 (Herbicidal ratio of 5% or lower (almost no effect))	0 (Herbicidal ratio of 5% or lower (almost no effect))	0 (Herbicidal ratio of 5% or lower (almost no effect))	0 (Herbicidal ratio of 5% or lower (almost no effect))	4 (Herbicidal ratio of 70% or higher and lower than 90%)	0 (Herbicidal ratio of 5% or lower (almost no effect))	5 (Herbicidal ratio of 90% or more (almost completely withered))	–	–	–	–	–	–
COCCOC(=O)OC1=C(c2c(C)cc(C)cc2C)C(=O)C(CC(C)=NOC)C1 (stereo not drawn) [1-147]	3 (Herbicidal ratio of 40% or higher and lower than 70%)	–	0 (Herbicidal ratio of 5% or lower (almost no effect))	5 (Herbicidal ratio of 90% or more (almost completely withered))	5 (Herbicidal ratio of 90% or more (almost completely withered))	5 (Herbicidal ratio of 90% or more (almost completely withered))	5 (Herbicidal ratio of 90% or more (almost completely withered))	5 (Herbicidal ratio of 90% or more (almost completely withered))	5 (Herbicidal ratio of 90% or more (almost completely withered))	5 (Herbicidal ratio of 90% or more (almost completely withered))	0 (Herbicidal ratio of 5% or lower (almost no effect))	4 (Herbicidal ratio of 70% or higher and lower than 90%)	5 (Herbicidal ratio of 90% or more (almost completely withered))	3 (Herbicidal ratio of 40% or higher and lower than 70%)	–	5 (Herbicidal ratio of 90% or more (almost completely withered))	5 (Herbicidal ratio of 90% or more (almost completely withered))	–	–	–	–
CON=C(C)CC1CC(O)=C(c2c(C)cc(-c3ccc(C(F)(F)F)cc3)cc2C)C1=O (mixture of isomers) [6-016]	0 (Herbicidal ratio of 5% or lower (almost no effect))	5 (Herbicidal ratio of 90% or more (almost completely withered))	–	–	4 (Herbicidal ratio of 70% or higher and lower than 90%)	5 (Herbicidal ratio of 90% or more (almost completely withered))	–	5 (Herbicidal ratio of 90% or more (almost completely withered))	0 (Herbicidal ratio of 5% or lower (almost no effect))	–	–	–	–	–	5 (Herbicidal ratio of 90% or more (almost completely withered))	–	–	0 (Herbicidal ratio of 5% or lower (almost no effect))	2 (Herbicidal ratio of 20% or higher and lower than 40%)	0 (Herbicidal ratio of 5% or lower (almost no effect))	I: Avena fatua, herbicidal effect grade (Avena fatua; [4]): 0 (Herbicidal ratio of 5% or lower (almost no effect)); f: beet, effect on crop grade (beet): 0 (Herbicidal ratio of 5% or lower (almost no effect)); g: rapeseed, effect on crop grade (rapeseed): 0 (Herbicidal ratio of 5% or lower (almost no effect)); J: Alopecurus myosuroides, herbicidal effect grade (Alopecurus myosuroides; [4]): 0 (Herbicidal ratio of 5% or lower (almost no effect)); R: Veronica persica, herbicidal effect grade (Veronica persica; [4]): 0 (Herbicidal ratio of 5% or lower (almost no effect))
CCCC(=O)CC1CC(O)=C(c2c(C)cc(C)cc2C)C1=O (stereo not drawn) [2-021]	1 (Herbicidal ratio of 5% or higher and lower than 20%)	4 (Herbicidal ratio of 70% or higher and lower than 90%)	–	–	5 (Herbicidal ratio of 90% or more (almost completely withered))	4 (Herbicidal ratio of 70% or higher and lower than 90%)	–	5 (Herbicidal ratio of 90% or more (almost completely withered))	4 (Herbicidal ratio of 70% or higher and lower than 90%)	–	–	–	–	–	4 (Herbicidal ratio of 70% or higher and lower than 90%)	–	–	0 (Herbicidal ratio of 5% or lower (almost no effect))	2 (Herbicidal ratio of 20% or higher and lower than 40%)	1 (Herbicidal ratio of 5% or higher and lower than 20%)	I: Avena fatua, herbicidal effect grade (Avena fatua; [4]): 0 (Herbicidal ratio of 5% or lower (almost no effect)); f: beet, effect on crop grade (beet): 0 (Herbicidal ratio of 5% or lower (almost no effect)); g: rapeseed, effect on crop grade (rapeseed): 1 (Herbicidal ratio of 5% or higher and lower than 20%); J: Alopecurus myosuroides, herbicidal effect grade (Alopecurus myosuroides; [4]): 5 (Herbicidal ratio of 90% or more (almost completely withered)); R: Veronica persica, herbicidal effect grade (Veronica persica; [4]): 0 (Herbicidal ratio of 5% or lower (almost no effect))
CON=C(C)CC1CC(OC(=O)N2CCN(C)CC2)=C(c2c(C)cc(C)cc2C)C1=O (stereo not drawn) [1-152]	0 (Herbicidal ratio of 5% or lower (almost no effect))	–	0 (Herbicidal ratio of 5% or lower (almost no effect))	0 (Herbicidal ratio of 5% or lower (almost no effect))	2 (Herbicidal ratio of 20% or higher and lower than 40%)	4 (Herbicidal ratio of 70% or higher and lower than 90%)	0 (Herbicidal ratio of 5% or lower (almost no effect))	5 (Herbicidal ratio of 90% or more (almost completely withered))	0 (Herbicidal ratio of 5% or lower (almost no effect))	0 (Herbicidal ratio of 5% or lower (almost no effect))	0 (Herbicidal ratio of 5% or lower (almost no effect))	0 (Herbicidal ratio of 5% or lower (almost no effect))	3 (Herbicidal ratio of 40% or higher and lower than 70%)	0 (Herbicidal ratio of 5% or lower (almost no effect))	–	5 (Herbicidal ratio of 90% or more (almost completely withered))	5 (Herbicidal ratio of 90% or more (almost completely withered))	–	–	–	–
